# Patent publication US20140296255A1, “LYSINE DEMETHYLASE INHIBITORS FOR THROMBOSIS AND CARDIOVASCULAR DISEASES” (ORYZONG GENOMICS, S.A., priority 2011, published 2014)
# pIC50: −log10 of the molar value. Like-named read-outs stand apart in the source and are kept apart here.
# How the values were obtained:
# [1] = test system: platelets; assay: Platelet levels in mice after five once daily i.p. injections; type: in vivo, mice (Hsd:Athymic Nude-Foxnlnu); conditions: blood 60 minutes after last administration
# Description: On the fifth day, 60 minutes after the administration, mice were sacrificed and blood was collected in sodium citrate-containing tubes for hemogram analysis. […] Platelet levels were determined in a standard hematology analyzer (Abacus Junior Vet, from Diatron) following the manufacturer's instructions.
# (§1) 20% 2-hydroxypropyl-j3-cyclodextrin in H2O was used as a vehicle. When necessary, 10% DMSO was also added in the vehicle. Each day, compounds were administered in a single intraperitoneal injection with administration volumes of 15 ml/kg.
# (§2) Mice strain was Hsd:Athymic Nude-Foxnlnu. Animals were maintained in air and temperature controlled cages with regular supply of water and food.
# [2] = target: T1, Human recombinant monoamine oxidase MAO-A (Homo sapiens, UniProt P21397); assay: MAO-A inhibition, kynuramine fluorescence assay; type: biochemical
# T1 construct: purchased Sigma Aldrich
# T1 sequence (P21397 1-527): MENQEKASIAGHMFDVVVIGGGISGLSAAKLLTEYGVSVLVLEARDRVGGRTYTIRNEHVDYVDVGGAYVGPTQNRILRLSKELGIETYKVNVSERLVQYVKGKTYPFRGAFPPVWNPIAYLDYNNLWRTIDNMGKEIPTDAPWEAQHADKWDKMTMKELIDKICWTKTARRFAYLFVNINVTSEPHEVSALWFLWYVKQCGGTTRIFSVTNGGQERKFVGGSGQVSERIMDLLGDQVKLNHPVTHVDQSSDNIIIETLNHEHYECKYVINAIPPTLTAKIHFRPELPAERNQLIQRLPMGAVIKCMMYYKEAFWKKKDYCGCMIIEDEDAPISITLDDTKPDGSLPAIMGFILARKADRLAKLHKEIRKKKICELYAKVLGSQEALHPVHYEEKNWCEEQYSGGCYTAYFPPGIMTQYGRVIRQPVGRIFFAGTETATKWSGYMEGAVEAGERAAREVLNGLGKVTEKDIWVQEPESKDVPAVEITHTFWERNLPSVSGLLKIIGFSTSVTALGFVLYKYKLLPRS
# Text: (§3) Human recombinant monoamine oxidase proteins MAO-A and MAO-B were purchased from Sigma Aldrich. MAOs catalyze the oxidative deamination of primary, secondary and tertiary amines. In order to monitor MAO enzymatic activities and/or their inhibition rate by inhibitor(s) of interest, a fluorescent-based (inhibitor)-screening assay was set up. 3-(2-Aminophenyl)-3-oxopropanamine (kynuramine dihydrobromide, Sigma Aldrich), a non fluorescent compound was chosen as a substrate. Kynuramine is a non-specific substrate for both MAOs activities. While undergoing oxidative deamination by MAO activities, kynuramine is converted into 4-hydroxyquinoline (4-HQ), a resulting fluorescent product.
# (§4) The monoamine oxidase activity was estimated by measuring the conversion of kynuramine into 4-hydroxyquinoline. Assays were conducted in 96-well black plates with clear bottom (Corning) in a final volume of 100 μL. The assay buffer was 100 mM HEPES, pH 7.5. Each experiment was performed in duplicate within the same experiment.
# (§5) Briefly, a fixed amount of MAO (0.25 μg for MAO-A and 0.5 μg for MAO-B) was incubated on ice for 15 minutes in the reaction buffer, in the absence and/or in the presence of various concentrations of inhibitor (e.g., from 0 to 50 μM, depending on the inhibitor strength).
# (§6) After leaving the enzyme(s) interacting with the inhibitor, 60 to 90 μM of kynuramine was added to each reaction for MAO-B and MAO-A assay respectively, and the reaction was left for one hour at 37° C. in the dark. The oxidative deamination of the substrate was stopped by adding 50 μL (v/v) of NaOH 2N. The conversion of kynuramine to 4-hydroxyquinoline, was monitored by fluorescence (excitation at 320 nm, emission at 360 nm) using a microplate reader (Infinite 200, Tecan). Arbitrary units were used to measure levels of fluorescence produced in the absence and/or in the presence of inhibitor.
# (§7) The Ki (IC50) of each inhibitor was determined at Vmax/2.
# [3] = target: T2, Human recombinant LSD1 protein (Homo sapiens, UniProt O60341); assay: LSD1 demethylase inhibition, Amplex Red peroxide/peroxidase-coupled assay; type: biochemical; conditions: further, more elaborate determination (Table 1)
# T2 construct: purchased BPS Bioscience Inc
# Text: Compounds for use in the methods of the invention can be identified by their ability to inhibit LSD1. The ability of compounds to inhibit LSD1 can be tested as follows. Human recombinant LSD1 protein was purchased from BPS Bioscience Inc. In order to monitor LSD1 enzymatic activity and/or its inhibition rate by the LSD1 inhibitor(s) of interest, di-methylated H3-K4 peptide (Millipore) was chosen as a substrate. The demethylase activity was estimated, under aerobic conditions, by measuring the release of H2O2 produced during the catalytic process, using the Amplex® Red peroxide/peroxidase-coupled assay kit (Invitrogen).
# Within the experiment, each concentration of inhibitor was tested in duplicate. […] The enzymatic reactions were set up in a 50 mM sodium phosphate, pH 7.4 buffer. At the end of the incubation, Amplex® Red reagent and horseradish peroxidase (HPR) solution were added to the reaction according to the recommendations provided by the supplier (Invitrogen), and left to incubate for 30 extra minutes at room temperature in the dark. A 1 μM H2O2 solution was used as a control of the kit efficiency. The conversion of the Amplex® Red reagent to resorufin due to the presence of H2O2 in the assay, was monitored by fluorescence (excitation at 540 nm, emission at 590 nm) using a microplate reader (Infinite 200, Tecan). Arbitrary units were used to measure level of H2O2 produced in the absence and/or in the presence of inhibitor.
# The maximum demethylase activity of LSD1 was obtained in the absence of inhibitor and corrected for background fluorescence in the absence of LSD1. The Ki (IC50) of each inhibitor was estimated at half of the maximum activity.
# [4] = target: T3, Human recombinant monoamine oxidase MAO-B (Homo sapiens, UniProt P27338); assay: MAO-B inhibition, kynuramine fluorescence assay; type: biochemical; conditions: further, more elaborate determination (Table 1)
# T3 construct: purchased Sigma Aldrich
# T3 sequence (P27338 1-520): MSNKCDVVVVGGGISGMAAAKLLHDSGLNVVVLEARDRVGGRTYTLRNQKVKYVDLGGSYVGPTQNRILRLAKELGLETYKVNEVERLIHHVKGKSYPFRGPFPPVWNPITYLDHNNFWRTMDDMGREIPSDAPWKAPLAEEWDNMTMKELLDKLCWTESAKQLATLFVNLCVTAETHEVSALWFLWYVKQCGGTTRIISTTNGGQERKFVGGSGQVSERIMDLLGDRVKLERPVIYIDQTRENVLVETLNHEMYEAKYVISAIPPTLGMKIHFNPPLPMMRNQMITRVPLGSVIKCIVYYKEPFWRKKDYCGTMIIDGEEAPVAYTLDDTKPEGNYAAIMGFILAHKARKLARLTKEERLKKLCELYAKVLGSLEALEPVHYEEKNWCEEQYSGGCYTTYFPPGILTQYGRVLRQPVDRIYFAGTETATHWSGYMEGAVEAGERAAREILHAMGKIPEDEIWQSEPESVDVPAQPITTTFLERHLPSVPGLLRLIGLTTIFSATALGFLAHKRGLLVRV
# Text: as §3, §4, §5, §6, §7
# [5] = test system: H3K4 methylation in SH-SY5Y cells; assay: Western blot for dimethylated H3K4 in SH-SY5Y cells; type: cell-based
# Text: B-actin was used as a loading control.
# [6] = test system: Red blood cells; assay: Red blood cell levels in mice after five once daily injections; type: in vivo, mice (Hsd:Athymic Nude-Foxnlnu); conditions: five consecutive days
# Description: (§8) On the fifth day, 60 minutes after the administration, mice were sacrificed and blood was collected in sodium citrate-containing tubes for hemogram analysis. Platelet levels were determined and referred as % of platelets compared with the levels found in mice treated with vehicle. Platelet levels were determined in a standard hematology analyzer (Abacus Junior Vet, from Diatron) following the manufacturer's instructions.
# as §1, §2
# (§9) Measurements of all blood cell types were conducted in the same manner as described above for platelets. Data in the table above are expressed as the % of cells vs vehicle.
# [7] = test system: Lymphocytes; assay: Lymphocyte levels in mice after five once daily injections; type: in vivo, mice (Hsd:Athymic Nude-Foxnlnu); conditions: five consecutive days
# Description: as §8, §1, §2, §9
# [8] = test system: Granulocytes; assay: Granulocyte levels in mice after five once daily injections; type: in vivo, mice (Hsd:Athymic Nude-Foxnlnu); conditions: five consecutive days
# Description: as §8, §1, §2, §9
# [9] = test system: White Blood Cells; assay: White blood cell levels in mice after five once daily injections; type: in vivo, mice (Hsd:Athymic Nude-Foxnlnu); conditions: five consecutive days
# Description: as §8, §1, §2, §9
# [10] = 20 mg/kg i.p. once daily for five days
# [11] = 40 mg/kg i.p. once daily for five days
# [12] = further, more elaborate determination (Table 1), read-out: MAO-A IC50
# [13] = 10 mg/kg i.p. once daily for five days
# [14] = 30 mg/kg i.p. once daily for five days
# [15] = 3 mg/kg i.p. once daily for five days
Compound,"% platelets vs. Vehicle [1, 10]","% platelets vs. Vehicle [1, 11]","pIC50 [2, 12]",pIC50 [3],pIC50 [4],"% platelets vs. Vehicle [1, 13]","% platelets vs. Vehicle [1, 14]",further results
"NC(=O)CN[C@H]1C[C@@H]1c1ccc(OCc2ccccc2)cc1 (single isomer, unassigned) [Compound 2]",35%,27%,< 5.70,> 6.70,–,–,–,% platelets vs. Vehicle ([1]; 60 mg/kg i.p. once daily for five days): 16%
N[C@H]1C[C@@H]1c1ccc(-c2cccc(O)c2)cc1 (racemic) [Compound 7],–,–,< 6.70,> 7.15,< 6.00,–,–,"% platelets vs. Vehicle ([1]; 17 mg/kg i.p. once daily for five days): 56%; % platelets vs. Vehicle ([1]; 34 mg/kg i.p. once daily for five days): 46%; % platelets vs. Vehicle ([1]; 52 mg/kg i.p. once daily for five days): 63%; pIC50 ([2]; initial determination, read-out: IC50 for MAO-A): < 6.00"
NC(=O)CN[C@H]1C[C@@H]1c1ccc(OCc2ccccc2)cc1 (racemic) [Compound 1],55%,34%,< 5.70,> 6.70,–,66%,–,"% platelets vs. Vehicle ([1]; 5 mg/kg i.p. once daily for five days): 91%; potency at increasing global dimethylated H3K4 levels as compared to tranylcypromine ([5]; Dual-1 at 100 μM vs parnate at 250 μM): ten-fold or more potent; H3K4 methylation (western blot) ([5]; compound at 100 μM, one, two, and three days): increases H3K4 methylation in cells in a time dependent manner"
CC(C)S(=O)(=O)Nc1cccc(-c2ccc([C@H]3C[C@@H]3N)cc2)c1 (racemic) [Compound 9],–,–,< 6.00,> 7.15,< 5.00,–,10%,–
CS(=O)(=O)Nc1cccc(-c2ccc([C@H]3C[C@@H]3N)cn2)c1 (racemic) [Compound 8],68%,44%,–,–,–,–,–,–
N[C@H]1CCN(CCN[C@H]2C[C@@H]2c2ccc(-c3cccc(C(F)(F)F)c3)cc2)C1 (racemic) [Compound 4],–,–,< 5.70,> 7.00,< 5.70,19%,7%,"% platelets vs. Vehicle [1, 15]: 87%; % platelets vs. Vehicle ([1]; 9 mg/kg i.p. once daily for five days): 30%; % platelets vs. Vehicle ([1]; 18 mg/kg i.p. once daily for five days): 19%; % platelets vs. Vehicle ([1]; 36 mg/kg i.p. once daily for five days): 11%"
N[C@H]1C[C@@H]1c1ccc(-c2cccc(C(F)(F)F)c2)nc1 (racemic) [Compound 6],–,–,–,–,–,87%,63%,–
CN1CCN(C(=O)CN[C@H]2C[C@@H]2c2ccc(OCc3ccccc3)cc2)CC1 (racemic) [Compound 3],–,–,< 5.70,–,–,5%,–,"Red blood cells, % of cells vs vehicle ([6]; 1 mg/kg): 103%; Red blood cells, % of cells vs vehicle ([6]; 3 mg/kg): 101%; Red blood cells, % of cells vs vehicle ([6]; 10 mg/kg): 92%; Lymphocytes, % of cells vs vehicle ([7]; 1 mg/kg): 115%; Lymphocytes, % of cells vs vehicle ([7]; 3 mg/kg): 90%; Lymphocytes, % of cells vs vehicle ([7]; 10 mg/kg): 35%; % platelets vs. Vehicle ([1]; 1 mg/kg i.p. once daily for five days): 46%; % platelets vs. Vehicle [1, 15]: 16%; Granulocytes, % of cells vs vehicle ([8]; 1 mg/kg): 69%; Granulocytes, % of cells vs vehicle ([8]; 3 mg/kg): 63%; Granulocytes, % of cells vs vehicle ([8]; 10 mg/kg): 23%; White Blood Cells, % of cells vs vehicle ([9]; 1 mg/kg): 86%; White Blood Cells, % of cells vs vehicle ([9]; 3 mg/kg): 76%; White Blood Cells, % of cells vs vehicle ([9]; 10 mg/kg): 29%"
